Source: patent US20230159527A1, “COMPOUNDS AS BCL-2 INHIBITORS” (Fochon Pharmaceuticals, Ltd., priority 2020, published 2023)

How the values were obtained:
Assay type in all cases: cell-based
RS4;11-BCL-2 G101V cells = assay: Cell proliferation assay, engineered RS4;11 cells stably overexpressing BCL-2 G101V (MTS, 168 h); conditions: Homo sapiens, RS4-11, 168 h, read-out: RS4, 11 BCL2- G101V
Procedure, shortened: (§1)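 Proliferation read-out: MTS for exactly 2 h, then absorbance at 490 nm, with IC50 derived from the fit. Before this, engineered RS4;11 lines (BCL-2 G101V, F104L; 5000 cells/well) were exposed 168 h at 37 °C to serially diluted compound, final 1.4–10000 nM.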

Toledo cells = assay: Cell proliferation assay, Toledo cells (MTS, 72 h); conditions: Homo sapiens, Toledo cells, MTS, read-out: Toledo IC50
Procedure, shortened: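 IC50 was derived from 490 nm absorbance after a 2 h MTS step. Before that, compounds at 1.5–10000 nM final (nine points) acted on Toledo cells for 72 h at 37 °C, 5% CO2. Cells were seeded at 30000/well in 10% FBS RPMI-1640 and rested 4 h before dosing.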

RS4;11-BCL-2 F104L cells = assay: Cell proliferation assay, engineered RS4;11 cells stably overexpressing BCL-2 F104L (MTS, 168 h); conditions: Homo sapiens, read-out: RS4, 11 BCL2-F104L
Procedure, shortened: as §1

CC(C)c1ccccc1[C@@H]1CCC[C@@H]1N1CC2(CCN(c3ccc(C(=O)NS(=O)(=O)c4ccc(NC[C@H]5CC[C@](C)(O)CC5)c([N+](=O)[O-])c4)c(Oc4cc5c(F)c[nH]c5nc4Cl)c3)CC2)C1 (single isomer, unassigned) [Example D-113, 2-((6-chloro-3-fluoro-1H-pyrrolo [2,3-b]pyridin-5-yl)oxy)-N-((4-((((1r,4r)-4-hydroxy-4-methylcyclohexyl)methyl)amino)-3-nitrophenyl)sulfonyl)-4-(2-((1S,2S or 1R,2R)-2-(2-isopropylphenyl)cyclopentyl)-2,7-diazaspiro[3.5]nonan-7-yl)benzamide]
IC50 (RS4;11-BCL-2 G101V cells): 19 nM | IC50 (Toledo cells): 1 nM | IC50 (RS4;11-BCL-2 F104L cells): 1 nM

CC(C)c1ccccc1[C@@H]1CCCN1C1CC2(CCN(c3ccc(C(=O)NS(=O)(=O)c4cc5c(c([N+](=O)[O-])c4)N[C@@H]([C@H]4CC[C@](C)(O)CC4)CO5)c(Oc4cc5c(F)c[nH]c5nc4OC4CCN(C)CC4)c3)CC2)C1 (single isomer, unassigned) [Example D-286, 2-((3-fluoro-6-((1-methylpiperidin-4-yl)oxy)-1H-pyrrolo[2,3-b]pyridin-5-yl)oxy)-N-(((S)-3-((1r,4S)-4-hydroxy-4-methylcyclohexyl)-5-nitro-3,4-dihydro-2H-benzo[b] [1,4]oxazin-7-yl)sulfonyl)-4-(2-((R or S)-2-(2-isopropylphenyl)pyrrolidin-1-yl)-7-azaspiro[3.5]nonan-7-yl)benzamide]
IC50 (RS4;11-BCL-2 G101V cells): 1 nM | IC50 (Toledo cells): 1 nM | IC50 (RS4;11-BCL-2 F104L cells): 1 nM

CC(C)c1ccccc1[C@@H]1CCCN1C1CC2(CCN(c3ccc(C(=O)NS(=O)(=O)c4cc5c(c([N+](=O)[O-])c4)N[C@@H]([C@H]4CC[C@](C)(O)CC4)CO5)c(Oc4cc5cc[nH]c5nc4OC[C@H]4COCCN4C)c3)CC2)C1 (single isomer, unassigned) [Example D-134, N-(((S)-3-((1r,4S)-4-hydroxy-4-methylcyclohexyl)-5-nitro-3,4-dihydro-2H-benzo[b][1,4]oxazin-7-yl)sulfonyl)-4-(2-((R or S)-2-(2-isopropylphenyl)pyrrolidin-1-yl)-7-azaspiro[3.5]nonan-7-yl)-2-((6-(((7)-4-methylmorpholin-3-yl)methoxy)-1H-pyrrolo[2,3-b]pyridin-5-yl)oxy)benzamide]
IC50 (RS4;11-BCL-2 G101V cells): 1 nM | IC50 (Toledo cells): 1 nM | IC50 (RS4;11-BCL-2 F104L cells): 1 nM

CC(C)c1ccccc1[C@@H]1CCCN1C1CC2(CCN(c3ccc(C(=O)NS(=O)(=O)c4cc5c(c([N+](=O)[O-])c4)N[C@@H]([C@H]4CC[C@](C)(O)CC4)CO5)c(Oc4cnc5[nH]cc(F)c5c4)c3)CC2)C1 (single isomer, unassigned) [Example D-7, 2-((3-fluoro-1H-pyrrolo[2,3-b]pyridin-5-yl)oxy)-N-(((S)-3-((1r,4S)-4-hydroxy-4-methylcyclohexyl)-5-nitro-3,4-dihydro-2H-benzo[b] [1,4]oxazin-7-yl)sulfonyl)-4-(2-((R or S)-2-(2-isopropylphenyl)pyrrolidin-1-yl)-7-azaspiro[3.5]nonan-7-yl)benzamide]
IC50 (RS4;11-BCL-2 G101V cells): 1 nM | IC50 (Toledo cells): 1 nM | IC50 (RS4;11-BCL-2 F104L cells): 14 nM

COCCOc1nc2[nH]cc(F)c2cc1Oc1cc(N2CCC3(CC2)CN([C@H]2CCC[C@H]2c2ccccc2C(C)C)C3)ccc1C(=O)NS(=O)(=O)c1cc2c(c([N+](=O)[O-])c1)N[C@@H]([C@H]1CC[C@](C)(O)CC1)CO2 (single isomer, unassigned) [Example D-95, 2-((3-fluoro-6-(2-methoxyethoxy)-1H-pyrrolo[2,3-b]pyridin-5-yl)oxy)-N-(((S)-3-((1r,4S)-4-hydroxy-4-methylcyclohexyl)-5-nitro-3,4-dihydro-2H-benzo[b][1,4]oxazin-7-yl)sulfonyl)-4-(2-((1S,2S or 1R,2R)-2-(2-isopropylphenyl)cyclopentyl)-2,7-diazaspiro[3.5]nonan-7-yl)benzamide]
IC50 (RS4;11-BCL-2 G101V cells): 3 nM | IC50 (Toledo cells): 1 nM | IC50 (RS4;11-BCL-2 F104L cells): 8 nM

COCCOc1nc2[nH]cc(F)c2cc1Oc1cc(N2CCC3(CC2)CN([C@H]2CCC[C@H]2c2ccccc2C(C)C)C3)ccc1C(=O)NS(=O)(=O)c1cnc(NC[C@H]2CC[C@](C)(O)CC2)c([N+](=O)[O-])c1 (single isomer, unassigned) [Example A-154, 2-((3-fluoro-6-(2-methoxyethoxy)-1H-pyrrolo[2,3-b]pyridin-5-yl)oxy)-N-((6-(((1r,4r)-4-hydroxy-4-methyl-cyclohexyl)methyl)amino)-5-nitro-pyridin-3-yl)sulfonyl)-4-(2-((1S,2S or 1R,2R)-2-(2-isopropylphenyyl)cyclo-pentyl)-2,7-diazaspiro[3.5]nonan-7-yl) benzamide]
IC50 (RS4;11-BCL-2 G101V cells): 57 nM | IC50 (Toledo cells): 1 nM | IC50 (RS4;11-BCL-2 F104L cells): 19 nM

CCOc1nc2[nH]cc(F)c2cc1Oc1cc(N2CCC3(CC2)CN([C@H]2CCC[C@H]2c2ccccc2C(C)C)C3)ccc1C(=O)NS(=O)(=O)c1cc2c(c([N+](=O)[O-])c1)N[C@@H]([C@H]1CC[C@](C)(O)CC1)CO2 (single isomer, unassigned) [Example D-103, 2-((6-ethoxy-3-fluoro-1H-pyrrolo [2,3-b]pyridin-5-yl)oxy)-N-(((S)-3-((1r,4S)-4-hydroxy-4-methylcyclohexyl)-5-nitro-3,4-dihydro-2H-benzo[b][1,4]oxazin-7-yl)sulfonyl)-4-(2-((1S,2S or 1R,2R)-2-(2-isopropylphenyl)cyclopentyl)-2,7-diazaspiro[3.5]nonan-7-yl)benzamide]
IC50 (RS4;11-BCL-2 G101V cells): 1 nM | IC50 (Toledo cells): 1 nM | IC50 (RS4;11-BCL-2 F104L cells): 1 nM

CC(C)c1ccccc1[C@@H]1CCCN1C1CC2(CCN(c3ccc(C(=O)NS(=O)(=O)c4cc5c(c([N+](=O)[O-])c4)N[C@@H]([C@H]4CC[C@](C)(O)CC4)CO5)c(Oc4cc5c(F)c[nH]c5nc4F)c3)CC2)C1 (single isomer, unassigned) [Example D-55, 2-((3,6-difluoro-1H-pyrrolo[2,3-b]pyridin-5-yl)oxy)-N-(((S)-3-((1r,4S)-4-hydroxy-4-methylcyclohexyl)-5-nitro-3,4-dihydro-2H-benzo [b][1,4]oxazin-7-yl)sulfonyl)-4-(2-((R or S)-2-(2-isopropylphenyl)pyrrolidin-1-yl)-7-azaspiro[3.5]nonan-7-yl)benzamide]
IC50 (RS4;11-BCL-2 G101V cells): 14 nM | IC50 (Toledo cells): 1 nM | IC50 (RS4;11-BCL-2 F104L cells): 19 nM

CC(C)c1ccccc1[C@@H]1CCCN1C1CC2(CCN(c3ccc(C(=O)NS(=O)(=O)c4cc5c(c([N+](=O)[O-])c4)N[C@@H]([C@H]4CC[C@](C)(O)CC4)CO5)c(Oc4cc5cc[nH]c5nc4F)c3)CC2)C1 (single isomer, unassigned) [Example D-64, 2-((6-fluoro-1H-pyrrolo[2,3-b]pyridin-5-yl)oxy)-N-(((S)-3-((1r,4S)-4-hydroxy-4-methylcyclohexyl)-5-nitro-3,4-dihydro-2H-benzo[b] [1,4]oxazin-7-yl)sulfonyl)-4-(2-((R or S)-2-(2-isopropylphenyl)pyrrolidin-1-yl)-7-azaspiro[3.5]nonan-7-yl)benzamide]
IC50 (RS4;11-BCL-2 G101V cells): 1 nM | IC50 (Toledo cells): 1 nM | IC50 (RS4;11-BCL-2 F104L cells): 25 nM

CC(C)c1ccccc1[C@@H]1CCCN1C1CC2(CCN(c3ccc(C(=O)NS(=O)(=O)c4cc5c(c([N+](=O)[O-])c4)N[C@@H]([C@H]4CC[C@](C)(O)CC4)CO5)c(Oc4cc5cc[nH]c5nc4O[C@@H]4CCN(C)C4)c3)CC2)C1 (single isomer, unassigned) [Example D-223, N-(((S)-3-((1r,4S)-4-hydroxy-4-methylcyclohexyl)-5-nitro-3,4-dihydro-2H-benzo[b][1,4]oxazin-7-yl)sulfonyl)-4-(2-((R or S)-2-(2-isopropylphenyl)pyrrolidin-1-yl)-7-azaspiro[3.5]nonan-7-yl)-2-((6-(((R)-1-methylpyrrolidin-3-yl)oxy)-1H-pyrrolo[2,3-b]pyridin-5-yl)oxy)benzamide]
IC50 (RS4;11-BCL-2 G101V cells): 1 nM | IC50 (Toledo cells): 1 nM | IC50 (RS4;11-BCL-2 F104L cells): 1 nM

CC(C)c1ccccc1[C@@H]1CCCN1C1CC2(CCN(c3ccc(C(=O)NS(=O)(=O)c4cc5c(c([N+](=O)[O-])c4)N[C@@H]([C@H]4CC[C@](C)(O)CC4)CO5)c(Oc4cc5cc[nH]c5nc4O[C@@H]4C[C@@H](CO)N(C)C4)c3)CC2)C1 (single isomer, unassigned) [Example D-250, N-(((S)-3-((1r,4S)-4-hydroxy-4-methylcyclohexyl)-5-nitro-3,4-dihydro-2H-benzo[b][1,4]oxazin-7-yl)sulfonyl)-2-((6-(((3R,5S)-5-(hydroxymethyl)-1-methylpyrrolidin-3-yl)oxy)-1H-pyrrolo[2,3-b]pyridin-5-yl)oxy)-4-(2-((R or S)-2-(2-isopropylphenyl)pyrrolidin-1-yl)-7-azaspiro[3.5]nonan-7-yl)benzamide]
IC50 (RS4;11-BCL-2 G101V cells): 1 nM | IC50 (Toledo cells): 1 nM | IC50 (RS4;11-BCL-2 F104L cells): 1 nM

CC(C)c1ccccc1[C@@H]1CCCN1C1CC2(CCN(c3ccc(C(=O)NS(=O)(=O)c4cc5c(c([N+](=O)[O-])c4)N[C@@H]([C@H]4CC[C@](C)(O)CC4)CO5)c(Oc4cc5cc[nH]c5nc4OCCN(C)C)c3)CC2)C1 (single isomer, unassigned) [Example D-60, 2-((6-(2-(dimethylamino)ethoxy)-1H-pyrrolo[2,3-b]pyridin-5-yl)oxy)-N-(((S)-3-((1r,4S)-4-hydroxy-4-methylcyclohexyl)-5-nitro-3,4-dihydro-2H-benzo[b][1,4]oxazin-7-yl)sulfonyl)-4-(2-((R or S)-2-(2-isopropylphenyl)pyrrolidin-1-yl)-7-azaspiro[3.5]nonan-7-yl)benzamide]
IC50 (RS4;11-BCL-2 G101V cells): 1 nM | IC50 (Toledo cells): 1 nM | IC50 (RS4;11-BCL-2 F104L cells): 1 nM
